The assay relates to USP11. In words: USP11 immunoblotting of irradiated U2OS cells (USP11 stability after DNA damage). It is filed as cell-based. As to conditions: irradiated (20 Gy), inhibitor at 5 μM, USP11 immunoblot, FIG. 11g. On the procedure:
FIG. 11. Characterization of USP11 protein stability a, U2OS cells synchronized in G1 or S/G2 were treated with cyclohexamide (CHX) and processed at the indicated time points to monitor USP11 stability. b, Immunoprecipitation (IP) of PALB2 from extracts prepared from 293T cells that were synchronized in G1 or S phase and treated or not with IR (20 Gy). c, U2OS cells were irradiated with a dose of 2 or 20 Gy and processed for USP11 immunoblotting at the indicated times post-IR. Actin was used as a loading control. d, U2OS cells, mock-treated or incubated with the ATM inhibitor KU55933 (ATMi), ATR inhibitor VE-821 (ATRi) or DNA-PKcs inhibitor NU7441 (DNAPKi), were irradiated (20 Gy) and processed for USP11 and actin (loading control) immunoblotting. e, Similar experiment to d except that cells were exposed to ultraviolet (UV) radiation (50 mJ/cm^−2). f, U2OS cells, mock-treated or incubated with the proteasome inhibitor MG132, were irradiated (20 Gy) and processed for USP11 and actin (loading control) immunoblotting. g, U2OS cells, mock-treated or incubated with the Cullin inhibitor MLN4924, were irradiated (20 Gy) and processed for USP11 and actin (loading control) immunoblotting. […]
A general note: In western blotting, separated proteins are transferred to a membrane and probed.

For the molecule `NS(=O)(=O)OC[C@@H]1C[C@@H](n2ccc3c(N[C@H]4CCc5ccccc54)ncnc32)C[C@@H]1O` [MLN4924], the “DNA damage-induced degradation of USP11” value is recorded as “protected USP11 from DNA damage-induced degradation”.

These data come from patent US11261466B2, “Homologous recombination factors” (Sinai Health System, priority 2015, dated 2022).
